In patent publication US20130023504A1, “Modulation of Prostaglandin/Cyclooxygenase Metabolic Pathways” (HUNTER-FLEMING LIMITED, priority 2006, published 2013):
Values joined by “and” are separate entries in the source; they are usually repeats but may differ in a detail not shown here. Equal entries are not always repeated.

Legend:
[1] = test system: human peripheral blood mononuclear cells; experiment: Prostaglandin (PGD2, PGE2, 15d-PGJ2) production by human peripheral blood mononuclear cells with/without TNF-α, EIA (Example 2); assay type: cell-based
Description: Mononuclear cells (monocytes and lymphocytes) were prepared by subjecting 48 ml of whole human blood to Ficoll/hypaque density centrifugation. Blood was layered on top of the ficoll (density=1.077 g/ml) and centrifuged at 400 g for 1 hour (22° C.), after which cells at the interphase were removed by pipette and transferred to fresh tubes. Tubes were filled with RPMI 1640 culture medium (2 volumes) thoroughly mixed and then centrifuged at 400 g for 5 minutes (22° C.). The supernatant was discarded and the cell pellet was re-suspended in RPMI 1640 culture medium and the volume adjusted to give the appropriate number of cells per incubation as indicated in the results section below. Cells were incubated in sterile plastic 1.5 ml tubes in a final volume of 1 ml RPMI 1640 medium for 18 hours at 37° C., 5% CO2 in air and 100% humidity. 7β-OH-EPIA was then added and cells incubated for a further hour at 37° C. before adding recombinant human Tumour Necrosis Factor-α (TNF-α) and incubations continued for a further 3 hours. 7β-OH-EPIA was prepared in dimethyl sulphoxide (DMSO), all remaining agents were prepared in RPMI 1640 medium. The requisite controls contained either medium or the same concentration of DMSO which was always <0.1% v/v. Incubations were terminated by centrifuging tubes at 11,000 g for 30 seconds at 22° C. and transferring the supernatants to fresh 1.5 ml tubes. Samples were then either processed immediately for PGD2 estimation as described below or stored at −20° C. prior to PGE2 or 15d-PGJ2 measurement.
Prostaglandin production by human monocytic cells in response to 7β-OH-EPIA in either the absence or presence of stimulation with TNF-α was determined by measuring the extracellular levels of eicosanoid using commercially available EIA kits.
PGD2 cannot be assayed directly from cell supernatants because it is chemically unstable and rapidly degrades to a number of J series prostaglandins including, PGJ2, Δ^12-PGJ2, and 15-deoxy-Δ^12,14-PGJ2. In order to circumvent this problem, unstable PGD2 was chemically treated to give a stable derivative, in this case prostaglandin D2-Methoxamine (PGD2-MOX) which was be stored for subsequent analysis. Immediately following termination of incubations, 100 μl of sample supernatant was added to 1.5 ml tubes containing 100 μl of a Methyl Oximating Reagent (methoxy)amine hydrochloride (MOX-HCl) and sodium acetate dissolved in a 10:90 v/v, ethanol/water solution. Tubes were then placed in a water bath and the reaction allowed to proceed for 30 minutes at 60° C. At the end of this period samples were stored at −80° C. Levels of PGD2 were subsequently estimated using Cayman Chemical's Prostaglandin D2-MOX EIA Kit (Cat. No. 512011).
Extracellular levels of PGE2 were estimated using R & D Systems' Parameter PGE2 EIA Kit according to the manufacturer's instructions for the high sensitivity protocol.
Extracellular levels of 15d-PGJ2 were estimated using Assay Designs' Correlate-EIA Prostaglandin 15-deoxy-Δ^12,14-prostaglandin J2 EIA Kit (Cat. No. 900-023) according to the manufacturer's instructions.
Results are expressed as the mean±s.d. for n=3 incubations. An unpaired Students t-Test was used to determine the probability (P) that two sets of data were different from each other. The difference was considered to be significant when P<0.05. Statistical calculations were carried out on an Apple Macintosh computer using the software package Statview, from Abacus Concepts Inc.

[2] = test system: PC-12 cells; experiment: Ischaemia (oxygen-glucose deprivation)-induced cell death in NGF-differentiated PC-12 cells, Trypan Blue exclusion; assay type: cell-based; conditions: vs. ischemia alone
Description: PC-12 cells were maintained on flasks coated with Collagen typel in PC-12 media with the following composition; RPMI 1640 without L-glutamine with 2 mM L-glutamine, 10 mM HEPES, 1 mM Sodium Pyruvate, additional glucose to give a final concentration of 4.5 g/L (RPMI normally has 2 g/L), 10% heat inactivated horse serum, 5% foetal calf serum and 50 units of penicillin/streptomycin. Media was changed every 2 days.
Confluent cultures of PC-12 cells were differentiated by culturing for 7 days in PC-12 medium without serum but with 50 ng/mlNGF (PC-12 NGF media). The cells were harvested, washed, counted and 1×10^5 PC-12 cells/well were plated overnight in a micro titre plate in glucose free PC-12 NGF medium. The medium was then changed to glucose-free PC-12 NGF medium containing the compounds to be tested and the plates left under normoxic conditions for 30 minutes.
During this stage, the media and test substances for the anoxic exposure were placed in a chamber and de-oxygenated with 95% N2/5% CO2. The media in the plates was changed with the de-oxygenated media and the plates then placed in an anaerobic chamber gassed with 95% N2 5% CO2 for 10 minutes before being sealed and incubated at 37° C. overnight (18 hours). For normoxia controls, the cells were treated identically to ischemic treatments except that all incubations were in 5% CO2/95% air.
Viability was determined using Trypan Blue exclusion.

For `CC12CCC3C(C1CCC2=O)[C@@H](O)C[C@H]1C[C@@H](O)CCC31C` (stereo partly drawn) [Compound 7β-OH-EPIA, 7β-hydroxy-EPIAndrosterone], which “effect on TNF-α-induced PGD2 biosynthesis” value ([1]; 0.1 nM-100 nM, TNF-α (0.5 μg/ml)) is on record?
The value was “no effect”.

What about the “increase in 15d-PGJ2 production” value ([1]; 0.1 nM-1000 nM, in the presence of TNF-α, vs respective control) of the same compound?
The value was 2-2.5 fold.

What about the “increase in 15d-PGJ2 levels” value ([1]; 0.1 nM-1000 nM, without TNF-α, vs DMSO controls) of the same compound?
Its value is 9-12 fold.

What about the “15d-PGJ2 levels in cell supernatants” value ([1]; 0.1 nM, 4 hours, without TNF-α) of the same compound?
Its value is 506 ± 101 pg/mL.

What about the “15d-PGJ2 levels in cell supernatants” value ([1]; 0.1 nM, TNF-α (10 ng/ml)) of the same compound?
Its value is 348 ± 48 pg/mL.

And the “PGE2 levels compared to DMSO controls” value ([1]; 1 nM-1000 nM, 4 hours, without TNF-α)?
The value was “not statistically significantly different”.

What about the “15d-PGJ2 levels in cell supernatants” value ([1]; 1 nM, 4 hours, without TNF-α) of the same compound?
Its value is 539 ± 51 pg/mL.

And the “15d-PGJ2 levels in cell supernatants” value ([1]; 1 nM, TNF-α (10 ng/ml))?
The value was 334 ± 24 pg/mL.

What about the “PGE2 levels in cell supernatants” value ([1]; 1 nM, TNF-α (10 ng/ml)) of the same compound?
Its value is 75 ± 25 pg/mL.

And the “15d-PGJ2 levels in cell supernatants” value ([1]; 10 nM, 4 hours, without TNF-α)?
The value was 520 ± 45 pg/mL.

And the “15d-PGJ2 levels in cell supernatants” value ([1]; 10 nM, TNF-α (10 ng/ml))?
The value was 356 ± 85 pg/mL.

And the “PGE2 levels in cell supernatants” value ([1]; 10 nM, TNF-α (10 ng/ml))?
The value was 82 ± 23 pg/mL.

What about the “15d-PGJ2 levels in cell supernatants” value ([1]; 100 nM, 4 hours, without TNF-α) of the same compound?
Its value is 450 ± 133 pg/mL.

And the “PGD2 levels in cell supernatants” value ([1]; 100 nM, 4 hours, without TNF-α)?
The value was 102 ± 24 pg/mL.

What about the “15d-PGJ2 levels in cell supernatants” value ([1]; 100 nM, TNF-α (10 ng/ml)) of the same compound?
Its value is 406 ± 30 pg/mL.

And the “PGE2 levels in cell supernatants” value ([1]; 100 nM, TNF-α (10 ng/ml))?
The value was 74 ± 12 pg/mL.

What about the “15d-PGJ2 levels in cell supernatants” value ([1]; 1000 nM, 4 hours, without TNF-α) of the same compound?
The value was 590 ± 84 pg/mL.

And the “15d-PGJ2 levels in cell supernatants” value ([1]; 1000 nM, TNF-α (10 ng/ml))?
Its value is 318 ± 100 pg/mL.

And the “effect on TNF-α-induced PGE2 production” value ([1]; 1000 nM, TNF-α (10 ng/ml))?
The value was “no effect”.

And the “PGD2 levels in cell supernatants” value ([1]; 1000 nM, TNF-α (0.5 μg/ml))?
Its value is 164 ± 31 pg/mL.

And the “decrease in cell death” value ([2]; 1 μM)?
The value was 26% and 25%.

And the “decrease in cell death” value ([2]; 10 μM)?
Its value is 53% and 50%.
